Measured values reported in US20040220081A1, “Nanoparticulate bioactive agents” (Spherics, Inc., priority 2002, published 2004).

Tests used:
[1] = in vivo; conditions: rat
[2] = Electron microscopy of precipitated particles of other drugs; assay type: physicochemical; conditions: 3% drug in dichloromethane precipitated in 100 vol. pentane, needles
Text: In other experiments, 3% of the drug carbamazepine in dichloromethane was precipitated in 100 vol. of pentane. By electron microscopy, the particles were predominantly needles, about 1 micron in diameter by 50 microns in length. A few 1 micron spherical particles were also observed. A similar experiment using the drug itraconazole produced generally spherical particles in the range of about 0.1 to 0.5 microns diameter, by electron microscopy.

bioavailability [1] [%] | particle diameter [2] | particle length [2] [microns] | Structure (SMILES)
0.7 |  |  | CC(=O)O[C@H]1C(=O)[C@@]2(C)[C@H]([C@H](OC(=O)c3ccccc3)[C@]3(O)C[C@H](OC(=O)[C@H](O)[C@@H](NC(=O)c4ccccc4)c4ccccc4)C(C)=C1C3(C)C)[C@]1(OC(C)=O)CO[C@@H]1C[C@@H]2O [(e), paclitaxel]
 | about 1 micron | ~50 | NC(=O)N1c2ccccc2C=Cc2ccccc21 [carbamazepine]
